{"source": "patent US7731856B2", "about": "“Method and system for treating waste matter from animals, urea-rich and urea-lean waste-matter products, and uses thereof” (Waste 2 Green, LLC, priority 2003, dated 2010)", "key": {"urease [1]": {"tested_on": "urease"}, "[2]": {"tested_on": "urease activity from natural animal faeces", "assay": "stable experiment: collected liquid manure and faeces with inhibitor, hyperfiltration, polymerisation with methanal", "parameters": "species or system pigs", "details": "for polymerisation of concentrated livestock-produced urea with methanal: 50 ml of hyperfiltration concentrate plus 30 ml methanal", "procedure": "Below a stable floor supporting 20 pigs to be slaughtered a large plastic foil covering the underlying floor having the shape of an inverted pyramid was placed. […] The liquid manure and faeces of the animals were collected on this foil for the next 24 hours. From this foil 20 l sample was collected (and separated) and treated in a hyperfiltration system of the type ROMEDI-250 supplied by UNION-filtration a/s, Nakskov, Denmark. The separation process was continued until a total of 15 l permeate liquid—water was withdrawn. The urea-lean fraction was disposed."}, "urease [3]": {"biological_target": "urease (Canavalia ensiformis, UniProt P07374)", "sequence (P07374 whole entry, looked up)": "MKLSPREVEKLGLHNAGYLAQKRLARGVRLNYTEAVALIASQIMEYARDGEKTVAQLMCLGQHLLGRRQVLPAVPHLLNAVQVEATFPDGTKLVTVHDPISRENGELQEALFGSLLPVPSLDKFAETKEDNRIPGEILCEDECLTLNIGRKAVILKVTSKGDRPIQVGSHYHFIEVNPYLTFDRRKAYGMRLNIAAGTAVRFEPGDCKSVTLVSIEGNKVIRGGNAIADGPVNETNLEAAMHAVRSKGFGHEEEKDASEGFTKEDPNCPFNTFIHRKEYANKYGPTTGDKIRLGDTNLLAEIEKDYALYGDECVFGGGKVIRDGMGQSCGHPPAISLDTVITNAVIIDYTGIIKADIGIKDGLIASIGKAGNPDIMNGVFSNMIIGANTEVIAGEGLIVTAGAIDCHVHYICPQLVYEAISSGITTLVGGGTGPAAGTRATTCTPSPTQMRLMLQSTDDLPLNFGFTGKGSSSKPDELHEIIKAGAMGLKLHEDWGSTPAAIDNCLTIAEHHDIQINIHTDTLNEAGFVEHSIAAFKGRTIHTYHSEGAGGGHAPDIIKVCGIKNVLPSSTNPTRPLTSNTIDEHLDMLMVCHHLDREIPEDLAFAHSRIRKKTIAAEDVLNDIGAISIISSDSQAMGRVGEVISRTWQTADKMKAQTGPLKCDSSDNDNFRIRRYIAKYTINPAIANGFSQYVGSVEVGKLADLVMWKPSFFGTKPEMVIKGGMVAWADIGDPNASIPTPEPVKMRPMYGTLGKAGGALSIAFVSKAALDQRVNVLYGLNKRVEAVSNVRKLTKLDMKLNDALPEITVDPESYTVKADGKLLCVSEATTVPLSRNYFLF", "procedure": "This can simply be studied by addition of 30 ml of methanal to the urease-contaminated and Cu^2+-contaminated reference system.\nThis is simple studied by addition of 30 ml methanal to the reference system contaminated with urease, Ag^+- or Pb^2+-ions."}, "urease EC 3.5.1.5": {"biological_target": "urease EC 3.5.1.5 (Canavalia ensiformis, UniProt P07374)", "sequence (P07374 whole entry, looked up)": "as above", "procedure": "For this example, a colourless urea reference system is defined by the following mixture: in a conical flask 10 g of synthetic urea is diluted with water to 50 ml, three drops of the acid-base indicator phenolphthalein is added."}, "[4]": {"details": "30 ml methanal (24% by weight) added to urease-contaminated urea system containing the inhibitor"}}, "note": "Where two headings read alike, the source gives them in different places.", "data": [{"molecule": "NC(N)=O", "note": "[urea]", "values": [{"measurement": "Km", "setting": "urease [1]; pH 5.5, pig manure system", "result": "~1000", "unit": "µM"}, {"measurement": "νm", "setting": "urease [1]; pH 5.5, pig manure system", "result": "approximately 2×10^−3 mol/dm^3/min"}, {"measurement": "Km", "setting": "urease [1]; pH 7, similar manure system", "result": "~4000", "unit": "µM"}, {"measurement": "νm", "setting": "urease [1]; pH 7, similar manure system", "result": "approximately 11×10^−3 mol/dm^3/min"}]}, {"molecule": "copper sulphate, pentahydrate", "values": [{"measurement": "urease activity in manure system", "setting": "[2]; 5 l water and 10 g copper sulphate, pentahydrate below stable floor, 20 pigs, 24 hours collection", "result": "remove the urease activity"}, {"measurement": "polymerisation of concentrated livestock-produced urea with methanal", "setting": "[2]", "result": "the polymerisation proceeded"}]}, {"molecule": "CC(=NO)C(C)=NO", "note": "[dimethylglyoxime]", "values": [{"measurement": "formation of urea formaldehyde plastic in spite of urease contamination", "setting": "urease [3]; [4]", "result": "it is possible to form the urea formaldehyde plastic"}, {"measurement": "polymerisation of concentrated livestock-produced urea with methanal", "setting": "[2]", "result": "can be reproduced"}]}, {"molecule": "CC(=O)[O-].CC(=O)[O-].[Pb+2]", "note": "[lead acetate]", "values": [{"measurement": "polymerisation of concentrated livestock-produced urea with methanal", "setting": "[2]", "result": "can be reproduced"}]}, {"molecule": "NCCN", "note": "[ethylenediamine]", "values": [{"measurement": "formation of urea formaldehyde plastic in spite of urease contamination", "setting": "urease [3]", "result": "it is possible to form the urea formaldehyde plastic"}, {"measurement": "polymerisation of concentrated livestock-produced urea with methanal", "setting": "[2]", "result": "can be reproduced"}]}, {"molecule": "O=[N+]([O-])[O-].[Ag+]", "note": "[silver nitrate]", "values": [{"measurement": "colour shift of phenolphthalein into red (ammonia formation by urea hydrolysis)", "setting": "urease EC 3.5.1.5; 1 g inhibitor added to 10 g urea in 50 ml water, then 1 ml urease (540 units per ml), system also does not begin to smell of ammonia", "result": "the colour shift of phenolphthalein does not occur"}, {"measurement": "catalytic effect of the urease enzyme on the hydrolysis of urea", "setting": "urease EC 3.5.1.5; ions present in the urinal system", "result": "completely lost"}, {"measurement": "formation of urea formaldehyde plastic in spite of urease contamination", "setting": "urease [3]; [4]", "result": "it is possible to form the urea formaldehyde plastic"}, {"measurement": "polymerisation of concentrated livestock-produced urea with methanal", "setting": "[2]", "result": "can be reproduced"}]}]}
